These results are taken from ChEMBL document CHEMBL5463725, “Data for DCP probe BAY-277” (2023).

The target of data set [1] is Aldo-keto reductase family 1 member B1 (Rattus norvegicus) (UniProt P07943). Description: Inhibition of Aldose Reductase at 10.0 µM in the Eurofins Panlabs Safety Screen. The following applies: Compound concentration 10.0 uM.
Data set [2] has as its target T1, Muscarinic acetylcholine receptor M2 (Homo sapiens, UniProt P08172).
T1 sequence (P08172 whole entry): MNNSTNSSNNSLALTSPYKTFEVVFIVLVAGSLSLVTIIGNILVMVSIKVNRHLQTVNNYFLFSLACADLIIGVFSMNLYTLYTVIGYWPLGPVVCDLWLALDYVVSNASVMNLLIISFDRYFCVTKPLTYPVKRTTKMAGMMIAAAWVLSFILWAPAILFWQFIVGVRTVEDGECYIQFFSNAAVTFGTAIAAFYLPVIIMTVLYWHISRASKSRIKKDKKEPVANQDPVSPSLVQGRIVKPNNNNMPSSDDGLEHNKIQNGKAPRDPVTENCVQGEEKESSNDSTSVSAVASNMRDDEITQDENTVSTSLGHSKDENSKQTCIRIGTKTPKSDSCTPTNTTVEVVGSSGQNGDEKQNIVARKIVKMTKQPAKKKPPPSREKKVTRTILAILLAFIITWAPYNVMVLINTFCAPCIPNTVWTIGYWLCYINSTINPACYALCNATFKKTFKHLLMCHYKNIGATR
Description: GPCRScan assay: inhibition of M2. On the set-up: radioligand conc. used [nm] 0.2 – 1.0, parental cells stable CHO.

For data set [3], the target named is Death-associated protein kinase 3 (Homo sapiens) (UniProt O43293). Description: Inhibition of ZIPK(h) at 10.0 µM in the Eurofins Kinase panel. The following applies: Compound concentration 10.0 uM.
The target of data set [4] is D(1B) dopamine receptor (Homo sapiens) (UniProt P21918). As to conditions: Compound concentration 10.0 uM.
Chain of D(1B) dopamine receptor (Homo sapiens) (P21918 whole entry): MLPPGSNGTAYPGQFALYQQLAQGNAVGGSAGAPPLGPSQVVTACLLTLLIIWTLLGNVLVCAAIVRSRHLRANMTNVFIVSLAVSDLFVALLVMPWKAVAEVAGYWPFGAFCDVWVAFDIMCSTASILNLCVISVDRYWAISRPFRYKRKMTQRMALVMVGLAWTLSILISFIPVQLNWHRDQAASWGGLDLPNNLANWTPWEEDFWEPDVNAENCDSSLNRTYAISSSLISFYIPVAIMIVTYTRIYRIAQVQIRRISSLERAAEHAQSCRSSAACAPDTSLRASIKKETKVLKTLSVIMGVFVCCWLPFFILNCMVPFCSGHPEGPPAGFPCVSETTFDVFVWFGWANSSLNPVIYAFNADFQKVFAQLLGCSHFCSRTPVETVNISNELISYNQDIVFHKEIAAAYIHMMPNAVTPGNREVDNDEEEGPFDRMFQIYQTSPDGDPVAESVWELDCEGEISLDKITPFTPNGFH
Data set [5] has as its target Nitric oxide synthase 1 (Homo sapiens) (UniProt P29475). Put plainly: Inhibition of Nitric Oxide Synthase, Neuronal (nNOS) at 10.0 µM in the Eurofins Panlabs Safety Screen. The following applies: Rattus norvegicus; Compound concentration 10.0 uM.
The target of data set [6] is Sodium-dependent noradrenaline transporter (Homo sapiens) (UniProt P23975). As to conditions: Compound concentration 10.0 uM.
Chain of Sodium-dependent noradrenaline transporter (Homo sapiens) (P23975 whole entry): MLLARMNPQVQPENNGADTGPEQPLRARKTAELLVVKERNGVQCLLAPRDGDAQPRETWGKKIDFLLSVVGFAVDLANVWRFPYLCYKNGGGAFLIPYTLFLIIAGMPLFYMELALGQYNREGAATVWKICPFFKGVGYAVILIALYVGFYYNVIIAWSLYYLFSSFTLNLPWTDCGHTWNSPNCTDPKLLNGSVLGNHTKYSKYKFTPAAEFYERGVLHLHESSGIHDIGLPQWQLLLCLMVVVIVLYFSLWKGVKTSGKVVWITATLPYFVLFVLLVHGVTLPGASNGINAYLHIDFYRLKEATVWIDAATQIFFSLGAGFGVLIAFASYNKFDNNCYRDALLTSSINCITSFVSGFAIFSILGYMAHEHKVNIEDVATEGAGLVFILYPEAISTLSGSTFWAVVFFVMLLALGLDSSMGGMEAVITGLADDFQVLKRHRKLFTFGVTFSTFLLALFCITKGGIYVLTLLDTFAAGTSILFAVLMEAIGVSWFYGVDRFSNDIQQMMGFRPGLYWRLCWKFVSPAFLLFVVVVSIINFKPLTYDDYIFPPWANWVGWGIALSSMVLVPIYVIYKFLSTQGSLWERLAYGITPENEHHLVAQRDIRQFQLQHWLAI
The target in data set [7] is T2, 5-hydroxytryptamine receptor 1A (Homo sapiens) (UniProt P08908).
T2 sequence (whole entry): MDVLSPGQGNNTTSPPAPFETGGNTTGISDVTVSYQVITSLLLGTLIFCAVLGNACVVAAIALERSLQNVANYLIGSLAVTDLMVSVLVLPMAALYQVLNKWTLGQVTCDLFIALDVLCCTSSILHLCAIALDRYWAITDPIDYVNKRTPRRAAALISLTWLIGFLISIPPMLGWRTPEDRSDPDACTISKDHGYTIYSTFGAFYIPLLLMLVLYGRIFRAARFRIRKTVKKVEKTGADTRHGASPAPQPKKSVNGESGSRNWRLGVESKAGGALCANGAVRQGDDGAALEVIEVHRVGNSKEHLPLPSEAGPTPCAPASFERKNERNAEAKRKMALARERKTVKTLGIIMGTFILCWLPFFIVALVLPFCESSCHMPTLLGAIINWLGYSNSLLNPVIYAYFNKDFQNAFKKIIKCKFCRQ
As to conditions: Compound concentration 10.0 uM.

Data set [8] deals with Beta-adrenergic receptor kinase 1 (Homo sapiens) (UniProt P25098). Put plainly: Inhibition of GRK2(h) at 10.0 µM in the Eurofins Kinase panel. The following applies: Compound concentration 10.0 uM.
Data set [9] deals with Muscarinic acetylcholine receptor M3 (Homo sapiens, UniProt P20309). The following applies: Compound concentration 10.0 uM.
Chain of Muscarinic acetylcholine receptor M3 (P20309 whole entry, looked up): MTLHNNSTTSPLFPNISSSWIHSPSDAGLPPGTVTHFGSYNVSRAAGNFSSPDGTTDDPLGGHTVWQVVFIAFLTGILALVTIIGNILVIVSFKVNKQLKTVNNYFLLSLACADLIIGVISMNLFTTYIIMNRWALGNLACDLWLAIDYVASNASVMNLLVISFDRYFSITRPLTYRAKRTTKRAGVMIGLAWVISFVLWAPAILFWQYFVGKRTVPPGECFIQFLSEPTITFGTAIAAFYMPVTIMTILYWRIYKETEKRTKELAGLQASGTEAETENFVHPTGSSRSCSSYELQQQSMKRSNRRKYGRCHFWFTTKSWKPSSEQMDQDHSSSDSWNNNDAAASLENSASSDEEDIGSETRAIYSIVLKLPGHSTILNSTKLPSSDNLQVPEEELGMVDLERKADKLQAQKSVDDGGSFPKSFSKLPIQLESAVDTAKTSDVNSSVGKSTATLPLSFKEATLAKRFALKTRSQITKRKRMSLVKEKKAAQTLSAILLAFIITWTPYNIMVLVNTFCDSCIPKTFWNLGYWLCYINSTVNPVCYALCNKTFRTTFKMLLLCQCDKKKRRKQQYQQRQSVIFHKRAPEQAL
In data set [10] the target is Monoamine oxidase A (MAO-A) (Homo sapiens, UniProt P21397). Put plainly: Inhibition of Monoamine Oxidase MAO-A at 10.0 µM in the Eurofins Panlabs Safety Screen. The following applies: compound concentration 10 uM.
Data set [11] deals with Carbonic anhydrase 2 (Homo sapiens) (UniProt P00918). Description: Inhibition of Carbonic Anhydrase II at 10.0 µM in the Eurofins Panlabs Safety Screen. The following applies: Compound concentration 10.0 uM.
In data set [12] the target is Beta-2 adrenergic receptor (Homo sapiens) (UniProt P07550). Put plainly: Inhibition of Adrenergic beta2 at 10.0 µM in the Eurofins Panlabs Safety Screen. As to conditions: Compound concentration 10.0 uM.
Data set [13] concerns the target Endothelin receptor type B (Homo sapiens) (UniProt P24530). Description: Inhibition of Endothelin ETB at 10.0 µM in the Eurofins Panlabs Safety Screen. The following applies: Compound concentration 10.0 uM.
The target in data set [14] is cGMP-specific 3',5'-cyclic phosphodiesterase (Homo sapiens) (UniProt O76074). Description: Inhibition of Phosphodiesterase PDE5A at 10.0 µM in the Eurofins Panlabs Safety Screen. The following applies: Compound concentration 10.0 uM.
Data set [15] has as its target 5-hydroxytryptamine receptor 3A (Homo sapiens) (UniProt P46098). The following applies: Compound concentration 10.0 uM.
Data set [16] addresses Growth hormone secretagogue receptor type 1 (Homo sapiens) (UniProt Q92847). Description: Inhibition of Growth Hormone Secretagogue (GHS, Ghrelin) at 10.0 µM in the Eurofins Panlabs Safety Screen. As to conditions: Compound concentration 10.0 uM.
The target in data set [17] is Vasopressin V1a receptor (Homo sapiens) (UniProt P37288). Description: Inhibition of Vasopressin V1A at 10.0 µM in the Eurofins Panlabs Safety Screen. The following applies: Compound concentration 10.0 uM.
Data set [18] concerns the target Type-2 angiotensin II receptor (Homo sapiens) (UniProt P50052). Description: Inhibition of Angiotensin AT2 at 10.0 µM in the Eurofins Panlabs Safety Screen. As to conditions: Compound concentration 10.0 uM.
Data set [19] addresses GABA B receptor (Rattus norvegicus) (UniProt Q9Z0U4+O88871). Put plainly: Inhibition of GABAB, Non-Selective at 10.0 µM in the Eurofins Panlabs Safety Screen. It is filed as protein-complex assay. As to conditions: Compound concentration 10.0 uM.
Data set [20] addresses Methionine aminopeptidase 2 (Homo sapiens, UniProt P50579). Put plainly: METAP2 biochemical assay (human).
The target in data set [21] is T3, Muscarinic acetylcholine receptor M4 (Homo sapiens, UniProt P08173).
T3 sequence (P08173 whole entry): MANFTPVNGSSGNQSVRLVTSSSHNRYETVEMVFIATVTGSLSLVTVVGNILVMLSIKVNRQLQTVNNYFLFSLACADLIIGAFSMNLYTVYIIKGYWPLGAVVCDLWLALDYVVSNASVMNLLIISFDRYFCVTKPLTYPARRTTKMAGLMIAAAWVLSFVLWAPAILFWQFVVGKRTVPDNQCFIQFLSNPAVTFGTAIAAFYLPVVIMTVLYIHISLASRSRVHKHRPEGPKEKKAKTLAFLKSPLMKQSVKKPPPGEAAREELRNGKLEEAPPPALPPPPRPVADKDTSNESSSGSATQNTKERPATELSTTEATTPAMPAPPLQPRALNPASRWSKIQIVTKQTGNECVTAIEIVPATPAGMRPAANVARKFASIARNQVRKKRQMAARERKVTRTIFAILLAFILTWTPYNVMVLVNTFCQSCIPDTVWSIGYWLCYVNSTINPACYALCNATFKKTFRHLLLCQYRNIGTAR
Description: GPCRScan assay: inhibition of M4. On the set-up: radioligand conc. used [nm] 0.3 – 1.0, parental cells stable CHO.

Molecules are shown by their SMILES. Activity calls are given as the source filed them. No cut-off for these calls is given here.

Chain of 5-hydroxytryptamine receptor 3A (Homo sapiens) (P46098 whole entry): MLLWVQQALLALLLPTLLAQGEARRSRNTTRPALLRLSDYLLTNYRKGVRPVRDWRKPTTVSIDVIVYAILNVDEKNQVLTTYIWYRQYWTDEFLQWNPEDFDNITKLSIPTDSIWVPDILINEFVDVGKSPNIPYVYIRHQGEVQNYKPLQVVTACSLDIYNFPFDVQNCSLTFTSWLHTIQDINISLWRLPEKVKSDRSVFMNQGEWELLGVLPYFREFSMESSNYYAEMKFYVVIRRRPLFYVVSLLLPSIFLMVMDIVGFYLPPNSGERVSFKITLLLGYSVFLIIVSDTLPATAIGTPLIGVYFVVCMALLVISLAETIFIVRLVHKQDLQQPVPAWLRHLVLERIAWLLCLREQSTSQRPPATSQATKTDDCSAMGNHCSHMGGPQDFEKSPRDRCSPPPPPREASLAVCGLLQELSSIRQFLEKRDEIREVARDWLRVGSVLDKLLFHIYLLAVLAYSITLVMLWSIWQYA
Chain of Nitric oxide synthase 1 (Homo sapiens) (P29475 whole entry): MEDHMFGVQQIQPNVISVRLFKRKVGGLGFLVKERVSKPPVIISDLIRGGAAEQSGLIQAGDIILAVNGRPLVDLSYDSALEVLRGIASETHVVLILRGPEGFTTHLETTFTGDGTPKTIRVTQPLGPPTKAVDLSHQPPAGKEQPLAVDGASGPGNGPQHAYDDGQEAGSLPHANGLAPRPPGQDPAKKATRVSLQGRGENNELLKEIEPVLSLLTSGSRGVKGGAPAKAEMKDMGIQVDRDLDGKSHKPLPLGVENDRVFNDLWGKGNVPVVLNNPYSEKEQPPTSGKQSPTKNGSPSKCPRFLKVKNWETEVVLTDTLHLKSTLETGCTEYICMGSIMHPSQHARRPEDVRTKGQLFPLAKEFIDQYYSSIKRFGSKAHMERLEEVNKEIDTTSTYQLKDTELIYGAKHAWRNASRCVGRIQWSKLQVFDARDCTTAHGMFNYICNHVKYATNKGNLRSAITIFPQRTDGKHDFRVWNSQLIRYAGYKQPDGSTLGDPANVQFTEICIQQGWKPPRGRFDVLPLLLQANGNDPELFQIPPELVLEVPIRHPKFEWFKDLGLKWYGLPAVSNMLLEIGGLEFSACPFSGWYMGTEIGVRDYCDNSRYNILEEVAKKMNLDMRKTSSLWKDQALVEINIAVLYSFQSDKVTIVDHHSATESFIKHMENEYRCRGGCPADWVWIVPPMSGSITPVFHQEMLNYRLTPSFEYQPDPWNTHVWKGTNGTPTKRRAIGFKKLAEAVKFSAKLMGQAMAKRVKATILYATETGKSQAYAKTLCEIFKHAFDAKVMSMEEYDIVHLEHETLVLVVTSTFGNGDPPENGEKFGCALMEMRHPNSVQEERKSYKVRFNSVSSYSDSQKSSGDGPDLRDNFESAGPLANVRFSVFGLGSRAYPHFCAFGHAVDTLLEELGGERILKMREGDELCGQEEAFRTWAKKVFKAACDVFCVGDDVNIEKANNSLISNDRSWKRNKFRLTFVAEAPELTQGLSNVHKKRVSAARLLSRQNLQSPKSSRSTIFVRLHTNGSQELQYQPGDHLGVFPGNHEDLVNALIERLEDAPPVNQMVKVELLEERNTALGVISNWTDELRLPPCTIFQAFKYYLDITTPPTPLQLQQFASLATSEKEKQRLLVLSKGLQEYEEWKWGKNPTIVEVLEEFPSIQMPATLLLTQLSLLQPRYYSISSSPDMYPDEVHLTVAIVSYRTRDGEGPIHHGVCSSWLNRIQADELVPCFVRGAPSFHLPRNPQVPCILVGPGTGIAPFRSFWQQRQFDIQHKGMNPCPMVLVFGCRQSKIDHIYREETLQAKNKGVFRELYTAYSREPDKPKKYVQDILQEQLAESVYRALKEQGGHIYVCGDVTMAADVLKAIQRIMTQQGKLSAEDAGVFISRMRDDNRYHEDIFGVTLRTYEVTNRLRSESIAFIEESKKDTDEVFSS
Chain of Methionine aminopeptidase 2 (P50579 whole entry): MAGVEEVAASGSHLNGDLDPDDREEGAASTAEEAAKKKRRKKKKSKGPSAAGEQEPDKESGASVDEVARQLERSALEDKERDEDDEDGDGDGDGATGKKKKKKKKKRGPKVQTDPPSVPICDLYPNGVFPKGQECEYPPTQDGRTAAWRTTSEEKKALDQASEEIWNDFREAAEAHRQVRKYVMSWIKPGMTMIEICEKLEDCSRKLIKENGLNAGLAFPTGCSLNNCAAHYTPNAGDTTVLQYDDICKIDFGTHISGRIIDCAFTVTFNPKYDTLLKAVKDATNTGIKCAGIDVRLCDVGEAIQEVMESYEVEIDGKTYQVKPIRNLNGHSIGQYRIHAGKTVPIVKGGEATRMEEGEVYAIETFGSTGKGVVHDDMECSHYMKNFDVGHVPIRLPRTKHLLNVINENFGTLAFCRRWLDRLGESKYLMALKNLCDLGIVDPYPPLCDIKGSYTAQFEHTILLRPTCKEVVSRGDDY
Chain of Endothelin receptor type B (Homo sapiens) (P24530 whole entry): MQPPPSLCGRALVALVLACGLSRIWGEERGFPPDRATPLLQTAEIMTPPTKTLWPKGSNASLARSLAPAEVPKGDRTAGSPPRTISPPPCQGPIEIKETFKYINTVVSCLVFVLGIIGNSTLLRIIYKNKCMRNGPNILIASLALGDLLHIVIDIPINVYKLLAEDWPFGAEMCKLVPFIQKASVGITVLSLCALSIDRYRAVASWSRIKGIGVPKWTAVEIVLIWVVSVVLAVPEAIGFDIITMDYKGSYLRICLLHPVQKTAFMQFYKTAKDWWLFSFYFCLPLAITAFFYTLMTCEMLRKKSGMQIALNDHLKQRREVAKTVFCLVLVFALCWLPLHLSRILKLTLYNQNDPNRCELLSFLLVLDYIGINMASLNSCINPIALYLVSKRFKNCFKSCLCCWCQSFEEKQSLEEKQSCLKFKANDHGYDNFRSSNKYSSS
Chain of Type-2 angiotensin II receptor (Homo sapiens) (P50052 whole entry): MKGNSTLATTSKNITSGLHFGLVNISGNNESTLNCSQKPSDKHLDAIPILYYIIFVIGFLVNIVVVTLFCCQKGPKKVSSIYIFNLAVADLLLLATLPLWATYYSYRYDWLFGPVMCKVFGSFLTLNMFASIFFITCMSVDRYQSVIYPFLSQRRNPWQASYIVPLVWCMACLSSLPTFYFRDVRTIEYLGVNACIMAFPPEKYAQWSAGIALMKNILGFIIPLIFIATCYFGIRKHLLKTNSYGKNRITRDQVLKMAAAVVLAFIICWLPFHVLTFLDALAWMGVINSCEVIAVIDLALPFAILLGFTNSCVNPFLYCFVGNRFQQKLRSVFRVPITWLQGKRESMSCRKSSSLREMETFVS

For orientation: inhibition means the drop in the measured response relative to a control, in per cent. One may read the IC50 as the concentration needed to halve the response being measured. On to `O=C1NCCCC1N1Cc2cc(C3CCN(C(=O)CCCCCN4CCC(c5ccc(Oc6nn7cnnc7c7c6CCCC7)cc5)CC4)CC3)ccc2C1=O` (stereo unspecified), for which the inhibition in data set [1] was 29%; in data set [3], 15.9%; in [4] it was 10.8%; in data set [5] it was -4%; in data set [6], 4.02%; in data set [7] it was 35.3%. In addition, the inhibition in data set [8] was 15.1%; in [9], 51.5%; in data set [11], -8%; in data set [12], 13%; in [13], -5%; in data set [14] it was 10%. The inhibition in data set [15] is 23.8%; in [16], 5%; in [17], -3%; in data set [18], 17%; in data set [19], 22%. For the same compound, the Ki is 1070 nM in data set [2] (read-out: Ki), 1050 nM in data set [2] (read-out: pKi (converted)), 894 nM in data set [21] (read-out: Ki) and 891 nM in data set [21] (read-out: pKi (converted)). Moreover, in data set [10], the inhibition at 10 µM was 18%. For the same compound, in data set [20], half-maximal inhibition (IC50) was put at 5.7 nM.

For `O=C1CCC(N2Cc3cc(C4CCN(C(=O)CCCCCN5CCC(c6ccc(Oc7nn8cnnc8c8c7CCCC8)cc6)CC5)CC4)ccc3C2=O)C(=O)N1` (stereo unspecified), the inhibition in [1] was 32%; in data set [3], 11.7%; in data set [4] it was 1.6%; in data set [5], 9%; in data set [6] it was 11.7%; in data set [7] it was 7.96%. Also, the inhibition is 11.9% in [8]; 55% in data set [9]; -8% in data set [11]; -4% in data set [12]; 2% in data set [13]; 25% in data set [14]. Further, the inhibition in data set [15] was 22.9%; in data set [16], 2%; in [17], -8%; in [18], 13%; in data set [19], 15%. In addition, the Ki was 677 nM in data set [2] (read-out: Ki), 676 nM in data set [2] (read-out: pKi (converted)), 632 nM in [21] (read-out: Ki) and 617 nM in data set [21] (read-out: pKi (converted)). Also, in data set [10], the inhibition at 10 µM turned out to be 16%. For the same compound, in data set [20], the IC50 was 5.8 nM (active).
